Source: US8604053B2, “TRPV1 antagonists” (AbbVie Inc., priority 2008, dated 2013)

assay: Assessment of hemodynamic profile in anesthetized rat; type: in vivo; details: i.v. infusion 3, 10 and 30 mg/kg/30 minutes/dose, relative to vehicle control group
Experimental: Male Sprague-Dawley rats were anesthetized with Inactin, instrumented, and allowed to stabilize. Following a 30 minute baseline period, test compound was infused via intravenous administration at 3, 10, and 30 mg/kg/30 minutes/dose in a low volume PEG-400 vehicle (1 mL/kg) or 20:40:40 dimethylacetamide:propylene glycol:PEG-400 vehicle (1 mL/kg). A separate group of animals received infusion of vehicle alone. Mean arterial pressure (MAP) and heart rate (HR) were observed and recorded.

Molecule | Change in MAP or HR ≧ 15% ?
Cc1cc2c(NC(=O)N[C@@H]3C[C@](C)(CF)Oc4cc(Cl)ccc43)cccc2cn1 (single isomer, unassigned) [Example 121] | Yes (An observed increase or decrease of greater than 15% in MAP (mean arterial pressure) or HR (heart rate) in one or more of the animals in the test group relative to the vehicle control group is indicated as “Yes” in the table)
Cc1cc2c(NC(=O)N[C@@H]3C[C@@](C)(CF)Oc4cc(Cl)ccc43)cccc2cn1 (single isomer, unassigned) [Example 122] | No (an observed increase or decrease of less than or equal to 15% in MAP (mean arterial pressure) or HR (heart rate) in the test group of animals relative to the vehicle control group is indicated as “No” in the table)
Cc1cc2c(NC(=O)N[C@@H]3C[C@@](C)(C(F)F)Oc4cc(Cl)ccc43)cccc2cn1 (single isomer, unassigned) [Example 124] | No (an observed increase or decrease of less than or equal to 15% in MAP (mean arterial pressure) or HR (heart rate) in the test group of animals relative to the vehicle control group is indicated as “No” in the table)
CC1(C)C[C@@H](NC(=O)Nc2cccc3cnccc23)c2cc(F)ccc2O1 [Example 5, N-[(4R)-6-fluoro-2,2-dimethyl-3,4-dihydro-2H-chromen-4-yl]-N′-isoquinolin-5-ylurea] | Yes (An observed increase or decrease of greater than 15% in MAP (mean arterial pressure) or HR (heart rate) in one or more of the animals in the test group relative to the vehicle control group is indicated as “Yes” in the table)
CCC1(CC)C[C@@H](NC(=O)Nc2cccc3cnccc23)c2cc(F)ccc2O1 [Example 28, N-[(4R)-2,2-diethyl-6-fluoro-3,4-dihydro-2H-chromen-4-yl]-N′-isoquinolin-5-ylurea] | Yes (An observed increase or decrease of greater than 15% in MAP (mean arterial pressure) or HR (heart rate) in one or more of the animals in the test group relative to the vehicle control group is indicated as “Yes” in the table)
Cc1cc2c(NC(=O)N[C@@H]3CC(CF)(CF)Oc4ccc(F)cc43)cccc2cn1 [Example 65, N-[(4R)-6-fluoro-2,2-bis(fluoromethyl)-3,4-dihydro-2H-chromen-4-yl]-N′-(3-methylisoquinolin-5-yl)urea] | No (an observed increase or decrease of less than or equal to 15% in MAP (mean arterial pressure) or HR (heart rate) in the test group of animals relative to the vehicle control group is indicated as “No” in the table)
Cc1cc2c(NC(=O)N[C@@H]3CCOc4c(OC(F)(F)F)cccc43)cccc2cn1 [Example 66, N-(3-methylisoquinolin-5-yl)-N′-[(4R)-8-(trifluoromethoxy)-3,4-dihydro-2H-chromen-4-yl]urea] | No (an observed increase or decrease of less than or equal to 15% in MAP (mean arterial pressure) or HR (heart rate) in the test group of animals relative to the vehicle control group is indicated as “No” in the table)
Cc1cc2c(NC(=O)N[C@@H]3CC(CF)(CF)Oc4cc(Cl)ccc43)cccc2cn1 [Example 84, N-[(4R)-7-chloro-2,2-bis(fluoromethyl)-3,4-dihydro-2H-chromen-4-yl]-N′-(3-methylisoquinolin-5-yl)urea] | No (an observed increase or decrease of less than or equal to 15% in MAP (mean arterial pressure) or HR (heart rate) in the test group of animals relative to the vehicle control group is indicated as “No” in the table)
Cc1cc2c(NC(=O)N[C@@H]3CC(CF)(CF)Oc4c(F)cccc43)cccc2cn1 [Example 85, N-[(4R)-8-fluoro-2,2-bis(fluoromethyl)-3,4-dihydro-2H-chromen-4-yl]-N′-(3-methylisoquinolin-5-yl)urea] | No (an observed increase or decrease of less than or equal to 15% in MAP (mean arterial pressure) or HR (heart rate) in the test group of animals relative to the vehicle control group is indicated as “No” in the table)
Cc1cc2c(NC(=O)N[C@@H]3CC(C)(C)Oc4cc(F)ccc43)cccc2cn1 [Example 95, N-[(4R)-7-fluoro-2,2-dimethyl-3,4-dihydro-2H-chromen-4-yl]-N′-(3-methylisoquinolin-5-yl)urea] | Yes (An observed increase or decrease of greater than 15% in MAP (mean arterial pressure) or HR (heart rate) in one or more of the animals in the test group relative to the vehicle control group is indicated as “Yes” in the table)
Cc1cc2c(NC(=O)N[C@@H]3CC(CF)(CF)Oc4cc(F)ccc43)cccc2cn1 [Example 96, N-[(4R)-7-fluoro-2,2-bis(fluoromethyl)-3,4-dihydro-2H-chromen-4-yl]-N′-(3-methylisoquinolin-5-yl)urea] | Yes (An observed increase or decrease of greater than 15% in MAP (mean arterial pressure) or HR (heart rate) in one or more of the animals in the test group relative to the vehicle control group is indicated as “Yes” in the table)
Cc1cc2c(NC(=O)N[C@@H]3CC(C)(C)Oc4cc(Cl)ccc43)cccc2cn1 [Example 97, N-[(4R)-7-chloro-2,2-dimethyl-3,4-dihydro-2H-chromen-4-yl]-N′-(3-methylisoquinolin-5-yl)urea] | Yes (An observed increase or decrease of greater than 15% in MAP (mean arterial pressure) or HR (heart rate) in one or more of the animals in the test group relative to the vehicle control group is indicated as “Yes” in the table)
Cc1cc2c(NC(=O)N[C@@H]3CC(CF)(CF)Oc4ccccc43)cccc2cn1 [Example 101, N-[(4R)-2,2-bis(fluoromethyl)-3,4-dihydro-2H-chromen-4-yl]-N′-(3-methylisoquinolin-5-yl)urea] | Yes (An observed increase or decrease of greater than 15% in MAP (mean arterial pressure) or HR (heart rate) in one or more of the animals in the test group relative to the vehicle control group is indicated as “Yes” in the table)
Cc1cc2c(NC(=O)N[C@@H]3CC(C)(C)Oc4c3ccc(F)c4Cl)cccc2cn1 [Example 110, N-[(4R)-8-chloro-7-fluoro-2,2-dimethyl-3,4-dihydro-2H-chromen-4-yl]-N′-(3-methylisoquinolin-5-yl)urea] | Yes (An observed increase or decrease of greater than 15% in MAP (mean arterial pressure) or HR (heart rate) in one or more of the animals in the test group relative to the vehicle control group is indicated as “Yes” in the table)
Cc1cc2c(NC(=O)N[C@@H]3CC(C)(C)Oc4c3ccc(F)c4F)cccc2cn1 [Example 113, N-[(4R)-7,8-difluoro-2,2-dimethyl-3,4-dihydro-2H-chromen-4-yl]-N′-(3-methylisoquinolin-5-yl)urea] | Yes (An observed increase or decrease of greater than 15% in MAP (mean arterial pressure) or HR (heart rate) in one or more of the animals in the test group relative to the vehicle control group is indicated as “Yes” in the table)
Cc1cc2c(NC(=O)N[C@@H]3CC(C)(C)Oc4cc(C(F)(F)F)ccc43)cccc2cn1 [Example 118, N-[(4R)-2,2-dimethyl-7-(trifluoromethyl)-3,4-dihydro-2H-chromen-4-yl]-N′-(3-methylisoquinolin-5-yl)urea] | Yes (An observed increase or decrease of greater than 15% in MAP (mean arterial pressure) or HR (heart rate) in one or more of the animals in the test group relative to the vehicle control group is indicated as “Yes” in the table)
Cc1cc2c(NC(=O)N[C@@H]3CC(C)(C)Oc4c(F)cccc43)cccc2cn1 [Example 119, N-[(4R)-8-fluoro-2,2-dimethyl-3,4-dihydro-2H-chromen-4-yl]-N′-(3-methylisoquinolin-5-yl)urea] | Yes (An observed increase or decrease of greater than 15% in MAP (mean arterial pressure) or HR (heart rate) in one or more of the animals in the test group relative to the vehicle control group is indicated as “Yes” in the table)
Cc1cc2c(NC(=O)N[C@@H]3CC(CF)(CF)Oc4c(F)cc(F)cc43)cccc2cn1 [Example 120, N-[(4R)-6,8-difluoro-2,2-bis(fluoromethyl)-3,4-dihydro-2H-chromen-4-yl]-N′-(3-methylisoquinolin-5-yl)urea] | No (an observed increase or decrease of less than or equal to 15% in MAP (mean arterial pressure) or HR (heart rate) in the test group of animals relative to the vehicle control group is indicated as “No” in the table)
Cc1cc2c(NC(=O)N[C@@H]3CC(C)(C)Oc4cc(F)ccc43)c(F)ccc2cn1 [Example 123, N-[(4R)-7-fluoro-2,2-dimethyl-3,4-dihydro-2H-chromen-4-yl]-N′-(6-fluoro-3-methylisoquinolin-5-yl)urea] | No (an observed increase or decrease of less than or equal to 15% in MAP (mean arterial pressure) or HR (heart rate) in the test group of animals relative to the vehicle control group is indicated as “No” in the table)
N-[(4R)-6,8-difluoro-2,2-dimethyl-3,4-dihydro-2H-chromen-4-yl]-N-(3-methylisoquinolin-5-yl)urea [Example 98] | Yes (An observed increase or decrease of greater than 15% in MAP (mean arterial pressure) or HR (heart rate) in one or more of the animals in the test group relative to the vehicle control group is indicated as “Yes” in the table)
